Test results from publication PMC7470941 (2020).

Tests used:
[1] = test system: FPON1 (DNA, i motif, 5'-fluoromonophosphate) TCCCCC; assay: 19F NMR titration; details: Na+ (50 mM sodium citrate); pH 4.2, 10% D2O, 25 °C; 500 μM FPON1 (125 μM i-motif), 100 μM AMPF reference
[2] = test system: FP-hTeloC (DNA, i motif, 5'-fluoromonophosphate) TAACCCTAACCCTAACCCTAACCC; assay: 19F NMR melting, i-motif signal; details: Na+ (50 mM citrate buffer); pH 5.5, 10% D2O; 250 μM DNA, two equivalents mitoxantrone (+1.1 °C at 0.3 equivalents)
[3] = test system: FP-hTeloC (DNA, i motif, 5'-fluoromonophosphate) TAACCCTAACCCTAACCCTAACCC; assay: UV/VIS melting, 295 nm; details: Na+ (50 mM citrate buffer); pH 5.5, 10% D2O; 4 μM DNA; destabilised by excess mitoxantrone
[4] = test system: FP-hTeloC (DNA, i motif, 5'-fluoromonophosphate) TAACCCTAACCCTAACCCTAACCC; assay: 19F NMR titration; details: Na+ (50 mM sodium citrate); apparent; pH 4.2, 10% D2O; 212.5 μM FP-hTeloC, 80 μM AMPF reference
[5] = test system: hTeloC (DNA, i motif) TAACCCTAACCCTAACCCTAACCC; assay: UV/VIS melting, 295 nm; details: Na+ (50 mM citrate buffer); pH 5.5, 10% D2O; destabilised by excess mitoxantrone
[6] = test system: FP-hTeloC, ssDNA form at pH 6.4 (DNA, single strand, 5'-fluoromonophosphate) TAACCCTAACCCTAACCCTAACCC; assay: 19F NMR chemical shift change; details: Na+ (10 mM sodium cacodylate, 100 mM NaCl); pH 6.4, 10% D2O; i-motif:ssDNA 45:55; ΔδF = −0.02 ppm

| Kd [1] [µM] | Kd [4] [µM] | binding [6] | Compound | ΔTm [2] [°C] | binding [3] | binding [5] |
| --- | --- | --- | --- | --- | --- | --- |
| 180 ± 30 |  |  | C[n+]1ccc(-c2c3nc(c(-c4cc[n+](C)cc4)c4ccc([nH]4)c(-c4cc[n+](C)cc4)c4nc(c(-c5cc[n+](C)cc5)c5ccc2[nH]5)C=C4)C=C3)cc1 |  |  |  |
|  | 70 ± 30 | weak | O=C1c2c(O)ccc(O)c2C(=O)c2c(NCCNCCO)ccc(NCCNCCO)c21 | −3.2 | yes | yes |
